Measurements: ChEMBL document CHEMBL1131189, “Conformationally restricted analogues of 1N,12N-bisethylspermine: synthesis and growth inhibitory effects on human tumor cell lines” (1998)

Key:
A549 = assay: Growth inhibitory activity was measured for human A549 tumor cell line.; assay type: functional; details: read-out: ID50 (the source's name)
DU-145 [1] = assay: Growth inhibitory activity was measured for human DU145 tumor cell line.; assay type: functional; details: read-out: ID50 (the source's name)
HT-29 = assay: Growth inhibitory activity was measured for human HT-29 tumor cell line.; assay type: functional; details: read-out: ID50 (the source's name)
PC-3 = assay: Growth inhibitory activity was measured for human PC-3 tumor cell line.; assay type: functional; details: read-out: ID50 (the source's name)
DU-145 [2] = assay: The concentration levels of putrescine (PU) evaluated in DU145 cells treated with the compound concentration of 5 uM on fifth day of treatment.; assay type: functional, cell-based; details: Homo sapiens
DU-145 [3] = assay: The concentration levels of putrescine (PU) evaluated in DU145 cells treated with the compound concentration of 5 uM on third day of treatment.; assay type: functional, cell-based; details: Homo sapiens
DU-145 [4] = assay: The concentration levels of spermidine (SD) evaluated in DU145 cells treated with the compound concentration of 0.02 uM on fifth day of treatment.; assay type: functional, cell-based; details: Homo sapiens
DU-145 [5] = assay: The concentration levels of spermidine (SD) evaluated in DU145 cells treated with the compound concentration of 5 uM on fifth day of treatment.; assay type: functional, cell-based; details: Homo sapiens
DU-145 [6] = assay: The concentration levels of spermidine (SD), evaluated in DU145 cells treated with the compound concentration of 0.02 uM on third day of treatment.; assay type: functional, cell-based; details: Homo sapiens
DU-145 [7] = assay: The concentration levels of spermidine (SD), evaluated in DU145 cells treated with the compound concentration of 5 uM on third day of treatment.; assay type: functional, cell-based; details: Homo sapiens
DU-145 [8] = assay: The concentration levels of analogue evaluated in DU145 cells treated with the compound concentration of 0.02 uM on fifth day of treatment.; assay type: functional, cell-based; details: Homo sapiens
DU-145 [9] = assay: The concentration levels of analogue evaluated in DU145 cells treated with the compound concentration of 0.02 uM on third day of treatment.; assay type: functional, cell-based; details: Homo sapiens
DU-145 [10] = assay: The concentration levels of analogue evaluated in DU145 cells treated with the compound concentration of 5 uM on fifth day of treatment.; assay type: functional, cell-based; details: Homo sapiens
DU-145 [11] = assay: The concentration levels of spermine (SP) evaluated in DU145 cells treated with the compound concentration of 0.02 uM on fifth day of treatment.; assay type: functional, cell-based; details: Homo sapiens
DU-145 [12] = assay: The concentration levels of spermine (SP) evaluated in DU145 cells treated with the compound concentration of 5 uM on fifth day of treatment.; assay type: functional, cell-based; details: Homo sapiens
DU-145 [13] = assay: The concentration levels of spermine (SP), evaluated in DU145 cells treated with the compound concentration of 5 uM on third day of treatment.; assay type: functional, cell-based; details: Homo sapiens
DU-145 [14] = assay: The concentration levels of analogue evaluated in DU145 cells treated with the compound concentration of 5 uM on third day of treatment.; assay type: functional, cell-based; details: Homo sapiens
DU-145 [15] = assay: The concentration levels of putrescine (PU) evaluated in DU145 cells treated with the compound concentration of 0.02 uM on fifth day of treatment.; assay type: functional, cell-based; details: Homo sapiens
DU-145 [16] = assay: The concentration levels of putrescine (PU) evaluated in DU145 cells treated with the compound concentration of 0.02 uM on third day of treatment.; assay type: functional, cell-based; details: Homo sapiens
DU-145 [17] = assay: The concentration levels of spermine (SP), evaluated in DU145 cells treated with the compound concentration of 0.02 uM on third day of treatment.; assay type: functional, cell-based; details: Homo sapiens

`CCNCCCNCC1CC1CNCCCNCC` (stereo in doubt; 5) was tested, and the IC50 (A549) was 250 nM, the IC50 (DU-145 [1]) was 60 nM and the IC50 (HT-29) was 1400 nM. For the same molecule, the IC50 (PC-3) was 12400 nM.

Molecule `CCNCCCNC/C=C/CNCCCNCC` has an IC50 (DU-145 [1]; Homo sapiens, DU-145) of 140 nM.

For `CCNCCCNCC1CCC1CNCCCNCC` (stereo in doubt; 15), the Concentration (nM (10e6*cells)-1) (DU-145 [2]) was 0.031, the Concentration (nM (10e6*cells)-1) (DU-145 [3]) was 0.036 and the Concentration (nM (10e6*cells)-1) (DU-145 [4]) was 1.6. For the same molecule, the Concentration (nM (10e6*cells)-1) (DU-145 [5]) was 0.06, the Concentration (nM (10e6*cells)-1) (DU-145 [6]) was 2.13 and the Concentration (nM (10e6*cells)-1) (DU-145 [7]) was 0.15. For the same molecule, the Concentration (nM (10e6*cells)-1) (DU-145 [8]) was 0.05, the Concentration (nM (10e6*cells)-1) (DU-145 [9]) was 0.07 and the Concentration (nM (10e6*cells)-1) (DU-145 [10]) was 1.84. For the same molecule, the Concentration (nM (10e6*cells)-1) (DU-145 [11]) was 2.1, the Concentration (nM (10e6*cells)-1) (DU-145 [12]) was 0.2 and the Concentration (nM (10e6*cells)-1) (DU-145 [13]) was 0.49. It also gave a Concentration (nM (10e6*cells)-1) (DU-145 [14]) of 1.75, a Concentration (nM (10e6*cells)-1) (DU-145 [15]) of 0.081 and a Concentration (nM (10e6*cells)-1) (DU-145 [16]) of 0.162. The Concentration (nM (10e6*cells)-1) (DU-145 [17]) was 3.54.
